Experiment: Mouse retinal fatty acid composition after daily gavage of free DHA, sn-1 DHA LPC or sn-2 DHA LPC for 30 days (GC/MS)
Type: in vivo
Conditions: for fatty acid composition of mouse retina, 12:0, Mean ± S.D. / fatty acid composition of mouse retina, 14:0, Mean ± S.D. / fatty acid composition of mouse retina, 16:0, Mean ± S.D. / fatty acid composition of mouse retina, 16:0 DMA, Mean ± S.D. / fatty acid composition of mouse retina, 16:1 (n-7), Mean ± S.D. / fatty acid composition of mouse retina, 17:1 (n-7), Mean ± S.D. / fatty acid composition of mouse retina, 18:0, Mean ± S.D. / fatty acid composition of mouse retina, 18:0 DMA, Mean ± S.D. / fatty acid composition of mouse retina, 18:1(n-7), Mean ± S.D. / fatty acid composition of mouse retina, 18:1 (n-9), Mean ± S.D. / fatty acid composition of mouse retina, 18:1 DMA, Mean ± S.D. / fatty acid composition of mouse retina, 18:2 (n-6), Mean ± S.D. / fatty acid composition of mouse retina, 18:3 (n-3), Mean ± S.D. / fatty acid composition of mouse retina, 18:3 (n-6), Mean ± S.D. / fatty acid composition of mouse retina, 20:0, Mean ± S.D. / fatty acid composition of mouse retina, 20:1 (n-9), Mean ± S.D. / fatty acid composition of mouse retina, 20:2 (n-6), Mean ± S.D. / fatty acid composition of mouse retina, 20:3 (n-6), Mean ± S.D. / fatty acid composition of mouse retina, 20:4 (n-6), Mean ± S.D. / fatty acid composition of mouse retina, 20:5 (n-3), Mean ± S.D. / fatty acid composition of mouse retina, 22:0, Mean ± S.D. / fatty acid composition of mouse retina, 22:2 (n-6), Mean ± S.D. / fatty acid composition of mouse retina, 22:4 (n-6), Mean ± S.D. / fatty acid composition of mouse retina, 22:5 (n-3), Mean ± S.D. / fatty acid composition of mouse retina, 22:6 (n-3), Mean ± S.D. / fatty acid composition of mouse retina, 24:1 (n-9), Mean ± S.D.: 1 mg DHA daily by gavage
Description: Normal male mice (C57 BL/J6, 16-week-old) were gavaged daily with 1 mg DHA in the form of free DHA, sn-1 DHA LPC, or sn-2 DHA LPC in 80 μL corn oil for 30 days. Retinal FA composition was analyzed by GC/MS. Only the values for arachidonic acid and the omega-3 FA are shown here (mean±SD, 8 animals/group). […] SD: standard deviation; sn-1 and sn-2: stereospecific numbering 1 and 2 respectively; LPC: lysophosphatidylcholine; DHA: docosahexaenoic acid.
Animals and dietary treatments: All studies in animals described here were approved by the Institutional Animal Care and Use Committee of the University of Illinois at Chicago. The retina samples were obtained from our previous studies on the brain accretion of DHA in mice and rats, which were published previously. Male Sprague-Dawley rats (8-week-old) were purchased from Harlan laboratories (Indianapolis, IN, USA). Male C57 BL/J6 mice (2-4-months-old) were purchased from Jackson Laboratories (Bar Harbor. Maine).
In the first study, male Sprague-Dawley rats (n=5 per group, 8-week-old) were gavaged daily with 10 mg of DHA (40 mg DHA/kg body weight) in the form of TAG-DHA (DHASCO algal oil, DSM Nutritional Products, Columbia, MD, USA), synthetic di-DHA PC (phosphatidylcholine), or synthetic LPC-DHA (sn-1 acyl) for 30 days. The DHA was distributed equally among the three positions of TAG-DHA [17]. […] In the second study, 4-month-old male C57 BL/J6 mice (n=8 per group) were gavaged daily with 40 mg DHA/kg body weight in the form of free (unesterified) DHA, sn-1 acyl LPC-DHA, or sn-2 acyl LPC-DHA for 30 days as described previously. In the third study, male C57 BL/J6 mice (2-months-old, n=5 per group) were fed diets enriched with natural or lipase-treated fish oil or hill oil for 30 days. The total amount of omega-3 FA (eicosapentaenoic acid (EPA)+DHA) was 2.64 g/kg diet in all the diets. The untreated hill oil contained 18% of total omega-3 FA as LPC, whereas the lipase-treated hill oil contained >80% of the total omega-3 FA as LPC. The fish oil diets contained no LPC-EPA or LPC-DHA. The animals were trans-cardially perfused with ice cold phosphate buffered saline under anesthesia and the retinas were collected and kept frozen at −80° C. until the analysis.
Analytical procedures: The total lipids of retina were extracted by Bligh and Dyer procedure and the fatty acids were methylated using methanolic HCl. The fatty acid analysis was carried out by GC/MS (gas chromatography/mass spectroscopy) using Shimadzu QP2010SE equipped with Supelco Omegawax column, as described previously. Total ion current in the range of 50-400 m/z was used for quantification of the methyl esters. For LC/MS/MS (liquid chromatography/tandem mass spectroscopy) analysis, the lipids were extracted by the procedure of Ivanova et al.. The analysis of molecular species of phospholipids was performed on an ABSciex QTRAP mass spectrometer (Redwood City, CA, USA) coupled with Agilent 2600 UPLC system (Santa Clara, CA, USA), by multiple reaction monitoring. The internal standards 17:0 LPC, di 17:0 PC, and di 17:0 PE (phosphatidylethanolamine) were used for the quantification of the corresponding molecular species, without applying any correction factors for the differences in the ion intensity of different molecular species.
Statistics and correlations: The significance of differences between treatment groups was determined by a one-way ANOVA, with Tukey post-hoc multiple comparison corrections or unpaired t-test between control and treated samples adjusted with Holm-Sidak method (Graphpad Prism 8.0, San Diego, CA, USA).

With `CC/C=C\C/C=C\C/C=C\C/C=C\C/C=C\C/C=C\CCC(=O)O[C@H](CO)COP(=O)([O-])OCC[N+](C)(C)C` [sn-2 DHA LPC] the “fatty acid composition of mouse retina, 12:0, Mean ± S.D.” value was 0.73 ± 0.47, the “fatty acid composition of mouse retina, 14:0, Mean ± S.D.” value was 0.30 ± 0.17 and the “fatty acid composition of mouse retina, 16:0, Mean ± S.D.” value was 14.62 ± 1.22. The “fatty acid composition of mouse retina, 16:0 DMA, Mean ± S.D.” value was 1.02 ± 0.32, the “fatty acid composition of mouse retina, 16:1 (n-7), Mean ± S.D.” value was 0.47 ± 0.34 and the “fatty acid composition of mouse retina, 17:1 (n-7), Mean ± S.D.” value was 0.48 ± 0.38. For the same compound, the “fatty acid composition of mouse retina, 18:0, Mean ± S.D.” value was 15.44 ± 1.50, the “fatty acid composition of mouse retina, 18:0 DMA, Mean ± S.D.” value was 1.96 ± 0.30 and the “fatty acid composition of mouse retina, 18:1(n-7), Mean ± S.D.” value was 3.82 ± 0.62. For the same compound, the “fatty acid composition of mouse retina, 18:1 (n-9), Mean ± S.D.” value was 15.56 ± 1.16, the “fatty acid composition of mouse retina, 18:1 DMA, Mean ± S.D.” value was 0.78 ± 0.64 and the “fatty acid composition of mouse retina, 18:2 (n-6), Mean ± S.D.” value was 1.38 ± 0.49. For the same compound, the “fatty acid composition of mouse retina, 18:3 (n-3), Mean ± S.D.” value was 0.51 ± 0.42, the “fatty acid composition of mouse retina, 18:3 (n-6), Mean ± S.D.” value was 0.60 ± 0.47 and the “fatty acid composition of mouse retina, 20:0, Mean ± S.D.” value was 1.18 ± 0.72. For the same compound, the “fatty acid composition of mouse retina, 20:1 (n-9), Mean ± S.D.” value was 2.87 ± 0.60, the “fatty acid composition of mouse retina, 20:2 (n-6), Mean ± S.D.” value was 0.88 ± 0.95 and the “fatty acid composition of mouse retina, 20:3 (n-6), Mean ± S.D.” value was 1.44 ± 0.35. For the same compound, the “fatty acid composition of mouse retina, 20:4 (n-6), Mean ± S.D.” value was 5.75 ± 0.71, the “fatty acid composition of mouse retina, 20:5 (n-3), Mean ± S.D.” value was 1.91 ± 1.40 and the “fatty acid composition of mouse retina, 22:0, Mean ± S.D.” value was 1.24 ± 0.95. The “fatty acid composition of mouse retina, 22:2 (n-6), Mean ± S.D.” value was 1.00 ± 0.76, the “fatty acid composition of mouse retina, 22:4 (n-6), Mean ± S.D.” value was 2.23 ± 0.87 and the “fatty acid composition of mouse retina, 22:5 (n-3), Mean ± S.D.” value was 0.79 ± 0.76. For the same compound, the “fatty acid composition of mouse retina, 22:6 (n-3), Mean ± S.D.” value was 22.57 ± 3.12 and the “fatty acid composition of mouse retina, 24:1 (n-9), Mean ± S.D.” value was 0.49 ± 0.17.

In the case of `CC/C=C\C/C=C\C/C=C\C/C=C\C/C=C\C/C=C\CCC(=O)O` [Free DHA, docosahexaenoic acid], the “fatty acid composition of mouse retina, 12:0, Mean ± S.D.” value is reported as 0.60 ± 0.35, the “fatty acid composition of mouse retina, 14:0, Mean ± S.D.” value is reported as 0.20 ± 0.17 and the “fatty acid composition of mouse retina, 16:0, Mean ± S.D.” value is reported as 16.11 ± 1.56. For the same compound, the “fatty acid composition of mouse retina, 16:0 DMA, Mean ± S.D.” value was 0.75 ± 0.56, the “fatty acid composition of mouse retina, 16:1 (n-7), Mean ± S.D.” value was 0.55 ± 0.28 and the “fatty acid composition of mouse retina, 17:1 (n-7), Mean ± S.D.” value was 0.43 ± 0.16. The “fatty acid composition of mouse retina, 18:0, Mean ± S.D.” value was 17.32 ± 0.66, the “fatty acid composition of mouse retina, 18:0 DMA, Mean ± S.D.” value was 2.10 ± 0.88 and the “fatty acid composition of mouse retina, 18:1(n-7), Mean ± S.D.” value was 4.18 ± 0.34. For the same compound, the “fatty acid composition of mouse retina, 18:1 (n-9), Mean ± S.D.” value was 17.14 ± 0.78, the “fatty acid composition of mouse retina, 18:1 DMA, Mean ± S.D.” value was 0.85 ± 0.56 and the “fatty acid composition of mouse retina, 18:2 (n-6), Mean ± S.D.” value was 0.99 ± 0.65. The “fatty acid composition of mouse retina, 18:3 (n-3), Mean ± S.D.” value was 0.49 ± 0.15, the “fatty acid composition of mouse retina, 18:3 (n-6), Mean ± S.D.” value was 0.49 ± 0.36 and the “fatty acid composition of mouse retina, 20:0, Mean ± S.D.” value was 1.90 ± 0.64. For the same compound, the “fatty acid composition of mouse retina, 20:1 (n-9), Mean ± S.D.” value was 3.42 ± 0.59, the “fatty acid composition of mouse retina, 20:2 (n-6), Mean ± S.D.” value was 0.71 ± 0.50 and the “fatty acid composition of mouse retina, 20:3 (n-6), Mean ± S.D.” value was 1.30 ± 0.66. The “fatty acid composition of mouse retina, 20:4 (n-6), Mean ± S.D.” value was 7.42 ± 0.72, the “fatty acid composition of mouse retina, 20:5 (n-3), Mean ± S.D.” value was 2.03 ± 1.21 and the “fatty acid composition of mouse retina, 22:0, Mean ± S.D.” value was 1.08 ± 0.59. The “fatty acid composition of mouse retina, 22:2 (n-6), Mean ± S.D.” value was 0.77 ± 0.51, the “fatty acid composition of mouse retina, 22:4 (n-6), Mean ± S.D.” value was 2.51 ± 0.85 and the “fatty acid composition of mouse retina, 22:5 (n-3), Mean ± S.D.” value was 0.42 ± 0.15. The “fatty acid composition of mouse retina, 22:6 (n-3), Mean ± S.D.” value was 15.74 ± 1.57, the “fatty acid composition of mouse retina, 24:1 (n-9), Mean ± S.D.” value was 0.51 ± 0.25 and the “effect on retinal DHA” value (mice, 1 mg DHA daily) was “no effect”.

In the case of `CC/C=C\C/C=C\C/C=C\C/C=C\C/C=C\C/C=C\CCC(=O)OC[C@@H](O)COP(=O)([O-])OCC[N+](C)(C)C` [sn-1 DHA LPC], the “fatty acid composition of mouse retina, 12:0, Mean ± S.D.” value is reported as 0.73 ± 0.47, the “fatty acid composition of mouse retina, 14:0, Mean ± S.D.” value is reported as 0.30 ± 0.17 and the “fatty acid composition of mouse retina, 16:0, Mean ± S.D.” value is reported as 14.62 ± 1.22. For the same compound, the “fatty acid composition of mouse retina, 16:0 DMA, Mean ± S.D.” value was 1.02 ± 0.32, the “fatty acid composition of mouse retina, 16:1 (n-7), Mean ± S.D.” value was 0.47 ± 0.34 and the “fatty acid composition of mouse retina, 17:1 (n-7), Mean ± S.D.” value was 0.48 ± 0.38. For the same compound, the “fatty acid composition of mouse retina, 18:0, Mean ± S.D.” value was 15.44 ± 1.50, the “fatty acid composition of mouse retina, 18:0 DMA, Mean ± S.D.” value was 1.96 ± 0.30 and the “fatty acid composition of mouse retina, 18:1(n-7), Mean ± S.D.” value was 3.82 ± 0.62. The “fatty acid composition of mouse retina, 18:1 (n-9), Mean ± S.D.” value was 15.56 ± 1.16, the “fatty acid composition of mouse retina, 18:1 DMA, Mean ± S.D.” value was 0.78 ± 0.64 and the “fatty acid composition of mouse retina, 18:2 (n-6), Mean ± S.D.” value was 1.38 ± 0.49. The “fatty acid composition of mouse retina, 18:3 (n-3), Mean ± S.D.” value was 0.51 ± 0.42, the “fatty acid composition of mouse retina, 18:3 (n-6), Mean ± S.D.” value was 0.60 ± 0.47 and the “fatty acid composition of mouse retina, 20:0, Mean ± S.D.” value was 1.18 ± 0.72. The “fatty acid composition of mouse retina, 20:1 (n-9), Mean ± S.D.” value was 2.87 ± 0.60, the “fatty acid composition of mouse retina, 20:2 (n-6), Mean ± S.D.” value was 0.88 ± 0.95 and the “fatty acid composition of mouse retina, 20:3 (n-6), Mean ± S.D.” value was 1.44 ± 0.35. For the same compound, the “fatty acid composition of mouse retina, 20:4 (n-6), Mean ± S.D.” value was 5.75 ± 0.71, the “fatty acid composition of mouse retina, 20:5 (n-3), Mean ± S.D.” value was 1.91 ± 1.40 and the “fatty acid composition of mouse retina, 22:0, Mean ± S.D.” value was 1.24 ± 0.95. The “fatty acid composition of mouse retina, 22:2 (n-6), Mean ± S.D.” value was 1.00 ± 0.76, the “fatty acid composition of mouse retina, 22:4 (n-6), Mean ± S.D.” value was 2.23 ± 0.87 and the “fatty acid composition of mouse retina, 22:5 (n-3), Mean ± S.D.” value was 0.79 ± 0.76. The “fatty acid composition of mouse retina, 22:6 (n-3), Mean ± S.D.” value was 22.57 ± 3.12 and the “fatty acid composition of mouse retina, 24:1 (n-9), Mean ± S.D.” value was 0.49 ± 0.17.
